According to US20240246955A1, “TROPOMYOSIN RECEPTOR KINASE (TRK) DEGRADATION COMPOUNDS AND METHODS OF USE” (CULLGEN (SHANGHAI), INC., priority 2021, published 2024):

Key:
TPM3-TRKA fusion protein = target: T1, TPM3-TRKA fusion protein (Homo sapiens, UniProt P04629); assay: TPM3-TRKA degradation in KM12 cells (Western blot); format: cell-based; conditions: 16 hours, TRK protein, immunoblot; for inhibition at 0.01 µM: 10 nM; for inhibition at 0.1 µM: 100 nM
T1 construct: TPM3 (N-terminal part of tropomyosin alpha-3, natural fusion partner); endogenous in cells; host or cells: KM12 colon cancer cells; the other entry of the earlier key: TPM3 (P06753, Tropomyosin alpha-3 chain)
Protocol: Specific exemplary heterobifunctional compounds were characterized in KM12 cells. KM12 cells that express TPM3-TRKA fusion protein were treated with 10 nM or 100 nM heterobifunctional compounds disclosed herein or their corresponding warheads/inhibitors for 16 hours. Cells were collected, lysed and subject to immunoblotting using an antibody specific to TRK proteins.
KM12 cells were treated with heterobifunctional compounds at 10 nM or 100 nM for 16 hours.
Cultured cells were washed with cold PBS once and lysed in cold RIPA buffer supplemented with protease inhibitors and phosphatase inhibitors (Beyotime Biotechnology). The solutions were then incubated at 4° C. for 30 minutes with gentle agitation to fully lyse cells. Cell lysates were centrifuged at 13,000 rpm for 10 minutes at 4° C. and pellets were discarded. Total protein concentrations in the lysates were determined by BCA assays (Beyotime Biotechnology). Cell lysates were mixed with Laemmli loading buffer to 1× and heated at 99° C. for 5 min. Proteins were resolved on SDS-PAGE and visualized by chemiluminescence. Images were taken by a ChemiDoc MP Imaging system (Bio-Rad). Protein bands were quantitated using the software provided by Bio-Rad.
The percentage of TRK protein degradation of each compound at 10 nM and 100 nM was determined in KM12 cells as described in Methods. The percentage of degradation of each compound was indicated in the following categories: N/A: data not available; −: no degradation; +: degradation less than 50%; ++: degradation equal or greater than 50% but less than […]; +++: degradation equal or greater than 80%.

KM12 cells = assay: KM12 cell viability assay (CellTiter-Glo); format: cell-based; conditions: Homo sapiens, 72 h; KM12 cells, 3 days, CellTiter-Glo
Protocol: The kinase activity of TRK is known to play important roles in tumors expressing TRK-fusion proteins, as TRK kinase inhibitors compromise cell proliferation, survival, and induce marked clinical responses (Amatu et al., 2016; Drilon et al., 2018; Drilon et al., 2017; Khotskaya et al., 2017). KM12 cells seeded in 96-well plates were treated with heterobifunctional compounds following a 11-point 3-fold serial dilution. Three days after treatment, cell viability was determined using the CellTiter-Glo kit, and normalized to the mean values of 3 replicates of untreated cells. Dose-dependent response was analyzed following the least-squares non-linear regression method using the GraphPad Prism software. Each data point in the figure represents the mean values of three technical replicates ±standard deviation.
KM12 cells seeded in 96-well plates were treated with heterobifunctional compounds following a 11-point 3-fold serial dilution for 3 days.
KM12, TRKA G595R mutated KM12, HEL, and other cells were cultured at 37° C. with 5% CO2 in DMEM or RPMI 1640 Medium supplemented with 10% fetal bovine serum. Cells were authenticated using the short tandem repeat (STR) assays. Mycoplasma test results were negative.
Cells were seeded at a density of 5000 cells per well in 96-well assay plates and treated with test compounds following a 11-point 3-fold serial dilution. Three days later, cell viability was determined using the CellTiter-Glo assay kit (Promega) according to the manufacturer's instructions. The dose-response curves were determined and IC50 values were calculated using the GraphPad Prism software following a nonlinear regression (least squares fit) method.

T1 sequence (P04629 with tags, fused parts or gaps): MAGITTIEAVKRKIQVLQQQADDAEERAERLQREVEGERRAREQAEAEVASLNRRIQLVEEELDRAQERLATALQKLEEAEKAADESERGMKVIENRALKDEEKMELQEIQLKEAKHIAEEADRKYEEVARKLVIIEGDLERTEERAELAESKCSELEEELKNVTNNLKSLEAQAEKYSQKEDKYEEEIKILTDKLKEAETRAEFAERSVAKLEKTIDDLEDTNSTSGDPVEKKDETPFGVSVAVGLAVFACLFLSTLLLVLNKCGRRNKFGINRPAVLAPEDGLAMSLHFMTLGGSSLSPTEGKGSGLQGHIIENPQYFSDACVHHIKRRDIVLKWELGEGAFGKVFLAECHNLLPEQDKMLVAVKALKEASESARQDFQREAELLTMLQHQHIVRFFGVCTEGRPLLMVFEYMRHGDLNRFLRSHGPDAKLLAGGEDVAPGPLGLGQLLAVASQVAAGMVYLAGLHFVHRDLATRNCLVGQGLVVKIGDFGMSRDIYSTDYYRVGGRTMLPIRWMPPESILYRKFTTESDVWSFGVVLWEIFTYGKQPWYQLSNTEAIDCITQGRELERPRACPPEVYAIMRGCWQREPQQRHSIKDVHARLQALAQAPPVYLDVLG

Compound | inhibition at 0.01 µM (TPM3-TRKA fusion protein) | inhibition at 0.1 µM (TPM3-TRKA fusion protein) | IC50 (KM12 cells)
COCCN1C[C@@H](NC(=O)Nc2c(C)c(-c3cnc(N4CCN(C(=O)CCOCCOCCOCCNc5cccc6c5C(=O)N(C5CCC(=O)NC5=O)C6=O)CC4)nc3)nn2-c2ccccc2)[C@H](c2cccc(F)c2)C1 (stereo partly drawn) [CPD-005, 1-(3-(2-(4-(3-(2-(2-(2-((2-(2,6-dioxopiperidin-3-yl)-1,3-dioxoisoindolin-4-yl)amino)ethoxy)ethoxy)ethoxy)propanoyl)piperazin-1-yl)pyrimidin-5-yl)-4-methyl-1-phenyl-1H-pyrazol-5-yl)-3-((3S,4R)-4-(3-fluorophenyl)-1-(2-methoxyethyl)pyrrolidin-3-yl)urea] | > 80% | > 80% | 47.3 nM
COCCN1C[C@@H](NC(=O)Nc2c(C)c(-c3cnc(N4CCN(C(=O)CCOCCOCCOCCOCCNC(=O)C[C@H](NC(=O)[C@@H]5C[C@@H](O)CN5C(=O)[C@@H](NC(=O)C5(F)CC5)C(C)(C)C)c5ccc(-c6scnc6C)cc5)CC4)nc3)nn2-c2ccccc2)[C@H](c2cccc(F)c2)C1 [CPD-018, (2S,4R)-1-((S)-2-(1-fluorocyclopropane-1-carboxamido)-3,3-dimethylbutanoyl)-N-((S)-19-(4-(5-(5-(3-((3S,4R)-4-(3-fluorophenyl)-1-(2-methoxyethyl)pyrrolidin-3-yl)ureido)-4-methyl-1-phenyl-1H-pyrazol-3-yl)pyrimidin-2-yl)piperazin-1-yl)-1-(4-(4-methylthiazol-5-yl)phenyl)-3,19-dioxo-7,10,13,16-tetraoxa-4-azanonadecyl)-4-hydroxypyrrolidine-2-carboxamide] |  | 50 to 800% | 852 nM
COCCN1C[C@@H](NC(=O)Nc2c(C)c(-c3cnc(N4CCN(C(=O)CCOCCOCCNC(=O)C[C@H](NC(=O)[C@@H]5C[C@@H](O)CN5C(=O)[C@@H](NC(=O)C5(F)CC5)C(C)(C)C)c5ccc(-c6scnc6C)cc5)CC4)nc3)nn2-c2ccccc2)[C@H](c2cccc(F)c2)C1 [CPD-016, (2S,4R)-1-((S)-2-(1-fluorocyclopropane-1-carboxamido)-3,3-dimethylbutanoyl)-N-((S)-3-((2-(2-(3-(4-(5-(5-(3-((3S,4R)-4-(3-fluorophenyl)-1-(2-methoxyethyl)pyrrolidin-3-yl)ureido)-4-methyl-1-phenyl-1H-pyrazol-3-yl)pyrimidin-2-yl)piperazin-1-yl)-3-oxopropoxy)ethoxy)ethyl)amino)-1-(4-(4-methylthiazol-5-yl)phenyl)-3-oxopropyl)-4-hydroxypyrrolidine-2-carboxamide] | < 50% | 50 to 800% | 190 nM
COCCN1C[C@@H](NC(=O)Nc2c(C)c(-c3cnc(N4CCN(C(=O)CCCCCCCNC(=O)C[C@H](NC(=O)[C@@H]5C[C@@H](O)CN5C(=O)[C@@H](NC(=O)C5(F)CC5)C(C)(C)C)c5ccc(-c6scnc6C)cc5)CC4)nc3)nn2-c2ccccc2)[C@H](c2cccc(F)c2)C1 [CPD-014, (2S,4R)-1-((S)-2-(1-fluorocyclopropane-1-carboxamido)-3,3-dimethylbutanoyl)-N-((S)-3-((8-(4-(5-(5-(3-((3S,4R)-4-(3-fluorophenyl)-1-(2-methoxyethyl)pyrrolidin-3-yl)ureido)-4-methyl-1-phenyl-1H-pyrazol-3-yl)pyrimidin-2-yl)piperazin-1-yl)-8-oxooctyl)amino)-1-(4-(4-methylthiazol-5-yl)phenyl)-3-oxopropyl)-4-hydroxypyrrolidine-2-carboxamide] | 50 to 800% | > 80% | 17.8 nM
COCCN1C[C@@H](NC(=O)Nc2c(C)c(-c3cnc(N4CCN(C(=O)CCOCCOCCOCCOCCOCCNC(=O)C[C@H](NC(=O)[C@@H]5C[C@@H](O)CN5C(=O)[C@@H](NC(=O)C5(F)CC5)C(C)(C)C)c5ccc(-c6scnc6C)cc5)CC4)nc3)nn2-c2ccccc2)[C@H](c2cccc(F)c2)C1 [CPD-001, (2S,4R)-1-((S)-2-(1-fluorocyclopropane-1-carboxamido)-3,3-dimethylbutanoyl)-N-((S)-22-(4-(5-(5-(3-((3S,4R)-4-(3-fluorophenyl)-1-(2-methoxyethyl)pyrrolidin-3-yl)ureido)-4-methyl-1-phenyl-1H-pyrazol-3-yl)pyrimidin-2-yl)piperazin-1-yl)-1-(4-(4-methylthiazol-5-yl)phenyl)-3,22-dioxo-7,10,13,16,19-pentaoxa-4-azadocosyl)-4-hydroxypyrrolidine-2-carboxamide] |  |  | 518 nM

The next lines start with results.

inhibition at 0.01 µM (TPM3-TRKA fusion protein) | inhibition at 0.1 µM (TPM3-TRKA fusion protein) | Compound | IC50 (KM12 cells)
> 80% | > 80% | COCCN1C[C@@H](NC(=O)Nc2c(C)c(-c3cnc(N4CCN(C(=O)CCCCCNc5ccc6c(c5)C(=O)N(C5CCC(=O)NC5=O)C6=O)CC4)nc3)nn2-c2ccccc2)[C@H](c2cccc(F)c2)C1 (stereo partly drawn) [CPD-008, 1-(3-(2-(4-(6-((2-(2,6-dioxopiperidin-3-yl)-1,3-dioxoisoindolin-5-yl)amino)hexanoyl)piperazin-1-yl)pyrimidin-5-yl)-4-methyl-1-phenyl-1H-pyrazol-5-yl)-3-((3S,4R)-4-(3-fluorophenyl)-1-(2-methoxyethyl)pyrrolidin-3-yl)urea] | 10.6 nM
50 to 800% | 50 to 800% | COCCN1C[C@@H](NC(=O)Nc2c(C)c(-c3cnc(N4CCN(C(=O)CCCCCCCCCNC(=O)C[C@H](NC(=O)[C@@H]5C[C@@H](O)CN5C(=O)[C@@H](NC(=O)C5(F)CC5)C(C)(C)C)c5ccc(-c6scnc6C)cc5)CC4)nc3)nn2-c2ccccc2)[C@H](c2cccc(F)c2)C1 [CPD-015, (2S,4R)-1-((S)-2-(1-fluorocyclopropane-1-carboxamido)-3,3-dimethylbutanoyl)-N-((S)-3-((10-(4-(5-(5-(3-((3S,4R)-4-(3-fluorophenyl)-1-(2-methoxyethyl)pyrrolidin-3-yl)ureido)-4-methyl-1-phenyl-1H-pyrazol-3-yl)pyrimidin-2-yl)piperazin-1-yl)-10-oxodecyl)amino)-1-(4-(4-methylthiazol-5-yl)phenyl)-3-oxopropyl)-4-hydroxypyrrolidine-2-carboxamide] | 35.5 nM
> 80% | > 80% | COCCN1C[C@@H](NC(=O)Nc2c(C)c(-c3cnc(N4CCN(C(=O)CCCCCCCNc5ccc6c(c5)C(=O)N(C5CCC(=O)NC5=O)C6=O)CC4)nc3)nn2-c2ccccc2)[C@H](c2cccc(F)c2)C1 (stereo partly drawn) [CPD-006, 1-(3-(2-(4-(8-((2-(2,6-dioxopiperidin-3-yl)-1,3-dioxoisoindolin-5-yl)amino)octanoyl)piperazin-1-yl)pyrimidin-5-yl)-4-methyl-1-phenyl-1H-pyrazol-5-yl)-3-((3S,4R)-4-(3-fluorophenyl)-1-(2-methoxyethyl)pyrrolidin-3-yl)urea] | 10.3 nM
 | 50 to 800% | COCCN1C[C@@H](NC(=O)Nc2c(C)c(-c3cnc(N4CCN(C(=O)CCCCCOc5cc(-c6scnc6C)ccc5CNC(=O)[C@@H]5C[C@@H](O)CN5C(=O)[C@@H](NC(=O)C5(F)CC5)C(C)(C)C)CC4)nc3)nn2-c2ccccc2)[C@H](c2cccc(F)c2)C1 [CPD-020, (2S,4R)-1-((S)-2-(1-fluorocyclopropane-1-carboxamido)-3,3-dimethylbutanoyl)-N-(2-((6-(4-(5-(5-(3-((3S,4R)-4-(3-fluorophenyl)-1-(2-methoxyethyl)pyrrolidin-3-yl)ureido)-4-methyl-1-phenyl-1H-pyrazol-3-yl)pyrimidin-2-yl)piperazin-1-yl)-6-oxohexyl)oxy)-4-(4-methylthiazol-5-yl)benzyl)-4-hydroxypyrrolidine-2-carboxamide] | 293 nM
